Values of other authors in PMC7664160 (ACS infectious diseases, 2020).

System: intracellular C. neoformans

SMILES | fungicidal activity against intraphagocytic C. neoformans
C[C@@H]1[C@H](O)[C@@H](C)/C=C/C=C/C=C/C=C/C=C/C=C/C=C/[C@H](O[C@@H]2O[C@H](C)[C@@H](O)[C@H](N)[C@@H]2O)C[C@@H]2O[C@](O)(C[C@@H](O)C[C@@H](O)[C@H](O)CC[C@@H](O)C[C@@H](O)CC(=O)O[C@H]1C)C[C@H](O)[C@H]2C(=O)O [amphotericin B] | neither fluconazole nor amphotericin B have fungicidal activity
OC(Cn1cncn1)(Cn1cncn1)c1ccc(F)cc1F [fluconazole] | neither fluconazole nor amphotericin B have fungicidal activity
